Measurements taken from US20230174933A1, “METHODS OF MAKING CHIMERIC ANTIGEN RECEPTOR-EXPRESSING CELLS” (Novartis AG, priority 2020, published 2023).

How the values were obtained:
[1] = test system: BCMA-CAR; assay: ARM-BCMA CAR expression kinetics in vitro with or without AZT (FACS); format: cell-based; settings: AZT 30 μM and 100 μM
Experimental: In contrast to TM which measures lentiviral integration of the CAR transgene after 8-9 days, in the ARM process, the lentiviral transgene may not be fully integrated and truly expressed within 24 h post lentiviral addition, as lentiviral pseudotransduction could occur (Haas D L, et al., (2000) Mol Ther; 2(1):71-80; Galla M, et al., (2004) Mol Cell; 16(2):309-15). […] Flow cytometry (FACS) analyses were performed to detect CAR surface expression at 24 h, 48 h, 72 h, 96 h and 168 h post T cell activation and transduction with the lentiviral vector. In some cases, ARM-BCMA CAR and an aliquot of this product were frozen down immediately upon harvest for additional characterization in other assays.

[2] = test system: T cells activated with αCD3αCD28 beads; assay: Fold expansion, cell size and viability of cytokine treated T cells after TCR engagement; format: cell-based; settings: T cells activated with αCD3αCD28 beads at day 0 in the presence of cytokine
From the text: FIG. 12: Fold expansion of cytokine treated T cells after TCR engagement. T cells were activated with αCD3αCD28 beads at day 0 in the presence of indicated cytokines and then monitored for cell numbers at indicated time points.
T cells were activated with αCD3αCD28 beads at day 0 in the presence of indicated cytokines and then monitored for cell size (FIG. 13A) and viability (FIG. 13B) at indicated time points.

[3] = test system: T cells; assay: T cell expansion with cytokines after αCD3/αCD28 bead stimulation; format: cell-based
Experimental: Previously frozen T cells were thawed and contacted with αCD3/αCD28 dynal beads (cell to bead ratio of 1 to 3) in the presence of indicated cytokines at day 0. From day 3, twice more T cell growth media (RPMI1640, 10% FBS, 2 mM L-glutamin, 100 μM non-essential amino acids, 1 mM sodium pyruvate, 10 mM Hepes, 55 μM β-mercaptoethanol, 10% FBS, and 100 U/ml of penicillin-streptomycin) was added to the plate with indicated cytokines (without cytokine, rhIL2 (50 IU/ml, Novartis), IL6 (long/ml, R&D systems), IL7 (long/ml, Peprotech), IL15 (long/ml, Peprotech), and IL21 (long/ml, Peprotech)) at day 3, 5, 6, 9, 12, 15, and 18.
Cells were harvested at indicated time points and then stained with live/dead dye (eFluro780, eBioscience), CD3 (BioLegend, clone#: OKT3), CD4 (BioLegend, clone#: OKT4), CD8 (BD Bioscience, clone#: RPA-T8), CD45RO (BioLegend, clone#: UCHL1), CCR7 (BioLegend, clone#: G043H7), CD27 (BD Horizon, clone#: L128), CD127 (BioLegend, clone#: A019D5), CD57 (BioLegend, clone#: HCD57), CD126 (BioLegend, clon#: UV4), and CD130 (R&D Systems, clone#: 28126) antibodies. The cells were acquired by FACS Fortessa and then FlowJo program was used for data analysis.

[4] = biological target: T1, BCMA (TNFRSF17) of the commercial human plasma membrane protein array (human, UniProt Q02223 1-184, limits assumed); assay: commercial human plasma membrane protein array
T1 sequence (looked up): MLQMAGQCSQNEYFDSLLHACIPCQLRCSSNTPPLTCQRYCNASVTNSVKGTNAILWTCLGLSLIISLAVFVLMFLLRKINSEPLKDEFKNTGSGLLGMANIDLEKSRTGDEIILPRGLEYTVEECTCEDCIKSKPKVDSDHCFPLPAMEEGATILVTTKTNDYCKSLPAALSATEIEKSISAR

How did the “inhibition of CAR expression” value [1] turn out when `Cc1cn([C@H]2C[C@H](N=[N+]=[N-])[C@@H](CO)O2)c(=O)[nH]c1=O` [AZT, 3′-azido-3′-deoxythymidine] was run?
Its value is “effectively inhibit CAR expression”.

IL15: cytokine was tested. Which cell size [2] did it give?
Its cell size is “did not affect”.

And the viability [2]?
The viability was “did not affect”.

And the “expansion of IL6Rβ expressing cells” value [3]?
The value was “enhanced expansion of IL6Rβ expressing cells”.

And the T cell expansion ([3]; αCD3/αCD28 bead stimulated T cells plus cytokine)?
The T cell expansion was “showing the greatest enhancement”.

B1: anti-human BCMA single chain antibody variable fragment (scFv) (PI61) (scFv)
scFv: QVQLQESGGGVVQPGRSLRLSCAASGFTFSSYGMHWVRQAPGKGLEWVAVISYDGSNKYYADSVKGRFTISRDNSKNTLYLQMNSLRAEDTAVYYCGGSGYALHDDYYGLDVWGQGTLVTVSSGGGGSGGGGSGGGGSQSALTQPASVSGSPGQSITISCTGTSSDVGGYNYVSWYQQHPGKAPKLMIYDVSNRPSGVSNRFSGSKSGNTASLTISGLQAEDEADYYCSSYTSSSTLYVFGSGTKVTVL
notes: also called PI61 scFv
Does B1 bind [4]?
Result: binds
